“Also recorded” adds a separate entry of the source.
Columns and labels:
[1] = tested on: MTA1-RbAp48 complex; experiment: Competition pulldown: FOG1-(1–15) peptide added to MTA1-FLAG-RbAp48 complex; format: binding, human; details: FLAG-RbAp48 on anti-FLAG beads; for effect of FOG1 peptide on MTA1-RbAp48 interaction: increasing amounts of FOG1-(1–15) peptide
Experimental: RbAp48 and MTA1 constructs were in vitro translated in the presence of ^35S-labeled methionine using the TNT Quick Coupled Transcription/Translation kit (Promega) according to the manufacturer's instructions. In vitro translated ^35S-labeled FLAG-RbAp48 (20 μl) was immobilized onto agarose beads conjugated to anti-FLAG (M2) antibodies (Sigma) in binding buffer (50 mM Tris, pH 7.5, 300 mM NaCl, 0.5% Triton X-100, complete protease inhibitor mixture tablet (Roche Applied Science), and 1 mM DTT). The mixture was incubated with in vitro translated ^35S-labeled-MTA1 fragments (40 μl) at 4 °C for 2 h. The beads were then washed five times with binding buffer. Anti-FLAG beads alone were used as a negative control. Complexes were resolved by SDS-PAGE and visualized by autoradiography.
(§1) The structural data provide clear evidence that histone H4 and MTA1 bind mutually exclusively to RbAp48. […] Competition-binding experiments were performed to assess whether full-length MTA1 might inhibit the interaction of RbAp48 with H3 or FOG1 peptides and to confirm that H4 and MTA1 bind mutually exclusively to RbAp48. GST-H4-(1–48) was expressed in bacteria, immobilized onto glutathione beads, and used to pull down RbAp48 in the absence and presence of full-length MTA1 (Fig. 7A). In a complementary experiment (Fig. 7B), in vitro translated FLAG-RbAp48 was immobilized on anti-FLAG beads and used to pull down MTA1 in the absence and presence of histone H4-(1–48).
(§2) FIGURE 7. […] A, pulldown showing the binding of in vitro translated ^35S-labeled RbAp48 to GST-histone H4-(1–48) (immobilized on glutathione beads) in the absence and presence of in vitro translated MTA1. B, pulldown showing the binding of in vitro translated ^35S-labeled MTA1 to FLAG-RbAp48 (immobilized on anti-FLAG beads) in the absence and presence of histone H4-(1–48). C, pulldown assays showing the effect of adding increasing amounts of FOG1-(1–15) peptide to a complex formed between in vitro translated ^35S-labeled FLAG-RbAp48 (immobilized on anti-FLAG beads) and in vitro translated ^35S-labeled full-length MTA1 or MTA1-(530–715). […]

[2] = tested on: RbAp46/48; details: GST pulldown; ref [47]; cited from earlier work
Excerpt: Previous studies using GST pulldown assays have mapped the domains that mediate the interaction between MTA1/2 and RbAp46/48. […] Our crystallographic and biochemical data reveal that a short motif near the C-terminal end of MTA1 is able to bind ind ...

[3] = tested on: MTA1-RbAp48 complex; experiment: Competition pulldown: FLAG-RbAp48 pulls down MTA1 in absence and presence of histone H4-(1–48); format: binding, human; details: FLAG-RbAp48 on anti-FLAG beads, in vitro translated 35S-labeled MTA1, absence and presence of histone H4-(1–48)
Experimental: as §1, §2

[4] = target: RbAp46; details: for RbAp46; ref [16]; cited from earlier work
[5] = target: T1, RbAp48 (Homo sapiens, UniProt Q09028); experiment: Isothermal titration calorimetry (ITC) of MTA1 peptides binding to RbAp48; details: MicroCal iTC200, 25 °C, 20 mM Tris, pH 7.5, 150 mM NaCl, MTA1 peptide (250 μM) titrated into RbAp48 (25 μM, 200 μl), 20 injections of 2 μl, single-site 1:1 fit, representative measurement, standard error from single curve fit, each titration in duplicate, read-out: dissociation constant (KD)
T1 construct: made in house; host or cells: insect cells
Experimental: pcDNA3 constructs were expressed in vitro in the presence of [^35S]methionine. […] GST-H4-(1–48) was expressed and purified by glutathione affinity chromatography as described previously ([16]). Recombinant RbAp48 was expressed and purified from insect cells as described previously ([17]).
ITC measurements were carried out at 25 °C using a MicroCal iTC200 titration calorimeter. […] The reference power was set to 2 μcal/s, and the cell was stirred continuously at 1000 rpm. The evolved heats were integrated and normalized for protein concentration.

[6] = tested on: RbAp46 mutant (E356Q, D357N, E359Q, D360N, L30Y); details: D360N and L30Y; cited from earlier work
[7] = target: T1, RbAp48; experiment: GST pulldown of in vitro translated 35S-RbAp48 by GST-MTA1 fragments; format: binding; details: GST-MTA1 fusion on glutathione-Sepharose beads with in vitro translated 35S-labeled RbAp48, 2 h, 4 °C; SDS-PAGE and autoradiography
Excerpt: FLAG-tagged human RbAp48 (Uniprot: Q09028) was constructed by PCR and cloned into pcDNA3. MTA1 constructs (residues 1–250, 230–550, and 530–715) were generated by PCR amplification of the human gene (Uniprot: Q13330) and cloned into pcDNA3. MTA1 constructs (residues 530–635, 625–715, 643–695, and 656–686) were created by PCR amplification from codon-optimized sequences for bacterial expression (GenScript) and cloned into pGEX-6P with an N-terminal GST tag.
pcDNA3 constructs were expressed in vitro in the presence of [^35S]methionine. GST-MTA1 constructs were expressed in the BL21 strain of Escherichia coli and induced with 0.4 mM isopropyl 1-thio-β-D-galactopyranoside. The culture was incubated with shaking at 25 °C overnight, and the protein was subsequently purified by glutathione affinity chromatography. GST-H4-(1–48) was expressed and purified by glutathione affinity chromatography as described previously ([16]). Recombinant RbAp48 was expressed and purified from insect cells as described previously ([17]).
GST pulldown assays were performed by incubating equal amounts of GST or GST-MTA1 fusion proteins immobilized on glutathione-Sepharose beads (Amersham Biosciences) with in vitro translated ^35S-labeled RbAp48. The mixtures were incubated for 2 h at 4 °C and washed 5 times with binding buffer. Complexes were resolved by SDS-PAGE and visualized by autoradiography.

T1 sequence (Q09028 whole entry): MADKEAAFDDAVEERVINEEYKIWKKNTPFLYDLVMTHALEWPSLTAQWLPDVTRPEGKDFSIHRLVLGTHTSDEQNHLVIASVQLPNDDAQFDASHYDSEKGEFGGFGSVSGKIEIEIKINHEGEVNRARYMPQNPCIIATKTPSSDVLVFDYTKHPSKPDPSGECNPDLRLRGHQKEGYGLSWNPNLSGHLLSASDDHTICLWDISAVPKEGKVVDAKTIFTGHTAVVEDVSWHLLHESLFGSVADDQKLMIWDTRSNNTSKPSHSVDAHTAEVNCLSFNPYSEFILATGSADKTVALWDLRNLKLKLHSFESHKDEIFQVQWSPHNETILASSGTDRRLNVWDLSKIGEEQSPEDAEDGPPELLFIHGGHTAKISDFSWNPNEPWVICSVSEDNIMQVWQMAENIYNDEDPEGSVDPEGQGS

In the case of “FOG1-(1–15): peptide (residues 1–15) derived from the co-regulator FOG1”, the “effect of FOG1 peptide on MTA1-RbAp48 interaction” value ([1]; C-terminal MTA1 fragment (residues 530–715)) is reported as “The same result was observed”, the “competition for binding to RbAp48 (Fig. 7 title)” value ([1]; Fig. 7, full-length MTA1 or MTA1-(530–715)) is reported as “do not compete for binding to RbAp48” and the “effect of FOG1 peptide on MTA1-RbAp48 interaction” value ([1]; full-length MTA1) is reported as “unable to interfere with the MTA1-RbAp48 interaction”.

For “GATA-type zinc finger domain of MTA1 (residues 392–448): predicted GATA-type zinc finger domain of MTA1 (ACESCYTTQSYQWYSWGPPNMQCRLCASCWTYWKKYGGLKMPTRLDGERPGPNRSNM; GATA-type zinc finger; UniProt Q13330 392-448, looked up, fragment)”, the “recognition of RbAp46/48” value [2] is listed as “sufficient to recognize RbAp46/48”.

For H4-(1–48): histone H4 residues 1–48, the “competition of histone H4 with MTA1 for RbAp48” value [3] is listed as “compete for the same binding surface on RbAp48” and the Kd [4] is listed as 1000 nM.

For “Ac-KLLSSSETKRAARRPYKPIALRQSQA-NH2 [MTA1-(670–695)]”, the Kd [5] was 50 ± 7 nM.

For “GST-tagged H4 (residues 1–48): GST-H4-(1–48) expressed in bacteria and purified by glutathione affinity chromatography”, the “effect of RbAp46 mutations on interaction with H4” value [6] is given as “abrogate its interaction”.

In the case of CC[C@H](C)[C@H](NC(=O)[C@H](CCCCN)NC(=O)[C@H](CCCNC(=N)N)NC(=O)[C@@H](NC(=O)[C@H](CCC(=O)O)NC(=O)[C@H](CCC(=O)O)NC(=O)[C@@H](NC(=O)[C@H](C)NC(=O)[C@H](CCSC)NC(=O)[C@H](Cc1ccc(O)cc1)NC(=O)[C@H](Cc1ccccc1)NC(=O)[C@@H](NC(=O)[C@H](CC(=O)O)NC(C)=O)C(C)C)[C@@H](C)O)[C@@H](C)O)C(=O)N[C@@H](CCCNC(=N)N)C(=O)N[C@@H](CCCCN)C(=O)N[C@@H](CC(C)C)C(=O)N[C@@H](CC(C)C)C(=O)N[C@@H](CO)C(=O)N[C@@H](CO)C(=O)N[C@@H](CO)C(=O)N[C@@H](CCC(=O)O)C(=O)N[C@H](C(=O)N[C@@H](CCCCN)C(=O)N[C@@H](CCCNC(=N)N)C(=O)N[C@@H](C)C(=O)N[C@@H](C)C(=O)N[C@@H](CCCNC(=N)N)C(=O)N[C@@H](CCCNC(=N)N)C(=O)N1CCC[C@H]1C(=O)N[C@@H](Cc1ccc(O)cc1)C(=O)N[C@@H](CCCCN)C(N)=O)[C@@H](C)O [MTA1-(656–686)], the “binding to RbAp48 in GST pulldown” value [7] is reported as “sufficient to bind RbAp48; also recorded: shortest fragment of MTA1 capable of pulling down in vitro translated RbAp48”.
